Source: patent US4298739A, “Novel carbostyril derivatives” (priority 1977, dated 1981)

Columns and labels:
[1] = molecular target: T1, cyclic AMP phosphodiesterase (Oryctolagus cuniculus, UniProt G1ST54); assay: Obstructive action against cyclic AMP phosphodiesterase; format: biochemical, rabbit; conditions: 1.0 μmol cyclic AMP, pH 8.0, 30° C., read-out: phosphodiesterase obstruction rate
T1 construct: the supernatant was collected to use it as a crude enzyme solution; from tissue; host or cells: rabbit platelets (from platelet-rich plasma), 100,000 xg supernatant, DEAE-cellulose fraction
T1 sequence (G1ST54 1-1128): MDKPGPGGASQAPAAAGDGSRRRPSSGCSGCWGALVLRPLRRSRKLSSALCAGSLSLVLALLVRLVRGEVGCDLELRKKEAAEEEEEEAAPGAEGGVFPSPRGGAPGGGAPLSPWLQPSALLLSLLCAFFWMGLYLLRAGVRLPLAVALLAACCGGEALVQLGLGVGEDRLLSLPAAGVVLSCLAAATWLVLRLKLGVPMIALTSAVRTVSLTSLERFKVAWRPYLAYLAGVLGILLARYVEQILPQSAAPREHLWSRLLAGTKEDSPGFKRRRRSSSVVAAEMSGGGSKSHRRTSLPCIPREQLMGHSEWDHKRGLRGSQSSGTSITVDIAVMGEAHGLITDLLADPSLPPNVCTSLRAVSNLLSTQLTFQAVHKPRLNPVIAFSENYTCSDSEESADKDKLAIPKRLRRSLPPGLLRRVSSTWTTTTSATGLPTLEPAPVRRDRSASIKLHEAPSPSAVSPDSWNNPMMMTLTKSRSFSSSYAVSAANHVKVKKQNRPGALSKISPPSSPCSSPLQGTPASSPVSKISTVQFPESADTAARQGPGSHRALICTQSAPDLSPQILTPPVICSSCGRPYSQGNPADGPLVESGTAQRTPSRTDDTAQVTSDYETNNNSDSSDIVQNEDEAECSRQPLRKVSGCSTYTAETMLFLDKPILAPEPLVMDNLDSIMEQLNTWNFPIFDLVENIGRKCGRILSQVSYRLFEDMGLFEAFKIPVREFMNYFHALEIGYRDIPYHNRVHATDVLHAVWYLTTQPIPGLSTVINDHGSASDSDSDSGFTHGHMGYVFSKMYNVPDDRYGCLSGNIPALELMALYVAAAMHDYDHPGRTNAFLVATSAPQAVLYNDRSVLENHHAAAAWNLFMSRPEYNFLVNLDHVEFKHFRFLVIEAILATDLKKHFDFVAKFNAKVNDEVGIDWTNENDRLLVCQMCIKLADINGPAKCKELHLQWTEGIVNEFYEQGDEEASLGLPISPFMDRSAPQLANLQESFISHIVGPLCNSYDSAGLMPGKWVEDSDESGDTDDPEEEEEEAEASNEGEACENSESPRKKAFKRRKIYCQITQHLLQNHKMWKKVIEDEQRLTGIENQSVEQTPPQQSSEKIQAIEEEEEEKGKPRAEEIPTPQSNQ
Experimental: The obstructive action against cyclic AMP phosphodiesterase was measured according to the activity measuring method described in "Biochimica et Biophysica Acta", Vol. 429, pp. 485-497 (1976) and "Biochemical Medicine", Vol. 10, pp. 301-311 (1974).
That is, for determining the obstructive activity against cyclic AMP phosphodiesterase, 10 ml of a solution obtained by adding 1 mmol of MgCl2 into 50 mmol of tris-hydrochloric acid buffer with pH 7.4 was added to the platelets obtained by further centrifuging the abovesaid rabbit PRP at 3,000 r.p.m. for 10 minutes, and the suspended platelets were ground by a Teflon potter type homogenizer. This was followed by two times of freezing and thawing treatment and 300-second fracturing with 200 watt supersonic waves. After additional 60-minute centrifugation with 100,000 xg, the supernatant was collected to use it as a crude enzyme solution.
10 Milliliters of this crude buffer solution was added to a 1.5×20 cm DEAE-cellulose column which has previously been buffered with 50 mmol of tris-acetate buffer (pH 6.0), followed by washing and elution with 30 ml of 50 mmol tris-acetate buffer, and this buffer solution was subjected to linear gradient elution with 0 to 0.5 moles of sodium acetate-tris-acetatebuffer. The flow rate was 0.5 ml/min, and 5 ml of each fraction was batched out. […] This fraction was used as cyclic AMP phosphodiesterase.
0.1 Milliliter of an aqueous solution of each test compound of a specified concentration was mixed with 40 mmol of tris-hydrochloric acid buffer (pH 8.0, containing 50 μg of cow serum albumin and 4 mmol of MgCl2) containing predetermined 1.0 μmol of cyclic AMP (tritium cyclic AMP), and 0.2 ml of this mixed solution was used as substrate solution.
0.2 Milliliter of the above-prepared cyclic AMP phosphodiesterase of a predetermined concentration was added to said substrate solution and the mixture was reaction at 30° C. for 20 minutes, producing tritium 5'-AMP from the tritium cyclic AMP.
The reaction system was then immersed in boiling water for 2 minutes to stop the reaction, and then this reaction solution was cooled in ice water and, for converting the produced tritium 5'-AMP into tritium adenosine, the solution was added with 0.05 ml (1 mg/ml) of snake poison as 5'-nucleotidase and reacted at 30° C. for 10 minutes. The whole amount of this reaction solution was then added to a cation exchange resin (AG 500 W×4, 200-400 meshes, manufactured by Bio-Rad Co., column size: 0.5×1.5 cm), and the produced tritium anodesine alone was allowed to combine, washed with 6 ml of distilled water and eluted with 1.5 ml of 3 N-ammonia water. The whole quantity of the elutant was added with 10 ml of a triton-toluene type scintillator and the produced tritium adenosine was measured by a liquid scintillation counter to determine the phosphodiesterase activity.
In this way, the phosphodiesterase activation value (Vs) of the test compounds of the respective concentrations was determined, and the phosphodiesterase obstruction rate (%) was determined from said activation value (Vs) and control value (Vc) (obtained from water not containing any test compound) from the following formula: [formula]

Male mice = assay: Acute toxicity test, oral administration to mice; format: in vivo
Experimental: The test compounds were administered orally to the mice and LD50 (mg/kg) of the compounds was determined.

rabbit platelet [2] = assay: Collagen-induced aggregation in rabbit platelets (AG-II Aggregometer); format: cell-based
Summary of the method: (§1)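 Rabbit citrated PRP, diluted with PPP to 300,000/mm^3 platelets for ADP or 450,000/mm^3 for collagen, was preincubated with compound 1 min at 37° C. before inducer was added. ADP at 7.5×10^-5 M or collagen supernatant in Auren Beronal buffer pH 7.35; transmittance change recorded, percent inhibition derived.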

rabbit platelet [3] = assay: ADP-induced aggregation in rabbit platelets (AG-II Aggregometer); format: cell-based
Summary of the method: as §1

| Structure (SMILES) | inhibition at 100 µM ([1]; 10^-4 mole) [%] | inhibition at 10 µM ([1]; 10^-5 mole) [%] | inhibition at 1 µM ([1]; 10^-6 mole) [%] | inhibition at 0.1 µM ([1]; 10^-7 mole) [%] | LD50 (Male mice) [mg] | Inhibition effect on collagen induced aggregation in rabbit platelet (rabbit platelet [2]; 10^-4 mole) [%] | Inhibition effect on collagen induced aggregation in rabbit platelet (rabbit platelet [2]; 10^-5 mole) [%] | Inhibition effect on ADP-induced aggregation in rabbit platelet (rabbit platelet [3]; 10^-4 mole) [%] | Inhibition effect on ADP-induced aggregation in rabbit platelet (rabbit platelet [3]; 10^-5 mole) [%] |
| --- | --- | --- | --- | --- | --- | --- | --- | --- | --- |
| CC(C)Cn1c(=O)n(C)c(=O)c2[nH]cnc21 [1-Methyl-3-isobutylxanthine, 1-methyl-3-isobutylxanthine, reference compound] | 98.5 | 85.7 | 67.4 | 3.2 |  |  |  |  |  |
| O=C1CCc2cc(OCCCC(=O)Nc3c(Cl)cccc3Cl)ccc2N1 [compound 21, 6-[3-(o,o-Dichloroanilinocarbonyl)propoxy]-3,4-dihydrocarbonstyril] |  |  |  |  | > 1000 | 95.1 | 27.6 | 36.8 | 5.3 |
